From the NIST ThermoML archive (doi:10.1021/je049814b)

Experiment: wn = mass fraction of the nth substance listed
Settings: Liquid, Coaxial cylinder method

[Br-].[K+] [potassium bromide] + O
thermal conductivity [W/m/K]
Settings | 100 kPa | 2000 kPa | 10000 kPa | 40000 kPa
294.7 K, w1 = 0.1 | 0.578 | 0.578 | 0.582 | 0.592
295.7 K, w1 = 0.3 | 0.521 | 0.521 | 0.525 | 0.532
296.8 K, w1 = 0.2 | 0.553 | 0.553 | 0.557 | 0.565
320.9 K, w1 = 0.1 | 0.612 | 0.612 | 0.617 | 0.628
321.4 K, w1 = 0.3 | 0.554 | 0.554 | 0.559 | 0.569
325.4 K, w1 = 0.2 | 0.589 | 0.589 | 0.595 | 0.602
351.2 K, w1 = 0.2 | 0.616 | 0.616 | 0.62 | 0.629
354.8 K, w1 = 0.1 | 0.644 | 0.644 | 0.65 | 0.662
357.6 K, w1 = 0.3 | 0.588 | 0.588 | 0.591 | 0.601
381.3 K, w1 = 0.1 | 0.661 | 0.661 | 0.669 | 0.682
384.2 K, w1 = 0.3 | 0.601 | 0.601 | 0.605 | 0.616
387.6 K, w1 = 0.2 | 0.634 | 0.634 | 0.638 | 0.647
403.2 K, w1 = 0.1 | 0.661 | 0.661 | 0.667 | 0.683
406.2 K, w1 = 0.2 | 0.632 | 0.632 | 0.638 | 0.648
409.6 K, w1 = 0.3 | 0.6 | 0.6 | 0.606 | 0.618
425.9 K, w1 = 0.1 | 0.657 | 0.657 | 0.662 | 0.681
427.2 K, w1 = 0.3 | 0.598 | 0.598 | 0.604 | 0.616
431.2 K, w1 = 0.2 | 0.628 | 0.628 | 0.634 | 0.646
456.9 K, w1 = 0.2 | 0.616 | 0.616 | 0.623 | 0.635
457.6 K, w1 = 0.1 | 0.643 | 0.643 | 0.65 | 0.665
463.1 K, w1 = 0.3 | 0.582 | 0.582 | 0.586 | 0.599
481.3 K, w1 = 0.2 | – | – | 0.609 | 0.623
488.2 K, w1 = 0.1 | – | – | 0.628 | 0.65
494.2 K, w1 = 0.3 | – | – | 0.564 | 0.579
516.3 K, w1 = 0.3 | – | – | 0.542 | 0.562
519.3 K, w1 = 0.1 | – | – | 0.598 | 0.622
520.6 K, w1 = 0.2 | – | – | 0.575 | 0.592
539.7 K, w1 = 0.3 | – | – | 0.511 | 0.538
543.2 K, w1 = 0.1 | – | – | 0.569 | 0.597
547.6 K, w1 = 0.2 | – | – | 0.539 | 0.564
571.3 K, w1 = 0.2 | – | – | 0.501 | 0.534
571.9 K, w1 = 0.1 | – | – | 0.522 | 0.55
575.6 K, w1 = 0.3 | – | – | 0.455 | 0.496

[Br-].[Na+] [sodium bromide] + O
thermal conductivity [W/m/K]
Settings | 100 kPa | 2000 kPa | 10000 kPa | 40000 kPa
294.3 K, w1 = 0.1 | 0.58 | 0.58 | 0.586 | 0.596
294.7 K, w1 = 0.38 | 0.504 | 0.504 | 0.512 | 0.525
296 K, w1 = 0.2 | 0.56 | 0.56 | 0.565 | 0.575
297.2 K, w1 = 0.3 | 0.537 | 0.537 | 0.541 | 0.55
319.6 K, w1 = 0.38 | 0.531 | 0.531 | 0.536 | 0.549
319.9 K, w1 = 0.2 | 0.595 | 0.595 | 0.599 | 0.609
321.7 K, w1 = 0.1 | 0.618 | 0.618 | 0.624 | 0.635
323.9 K, w1 = 0.3 | 0.573 | 0.573 | 0.578 | 0.587
347.2 K, w1 = 0.38 | 0.56 | 0.56 | 0.565 | 0.578
350.2 K, w1 = 0.2 | 0.624 | 0.624 | 0.628 | 0.639
354.2 K, w1 = 0.1 | 0.648 | 0.648 | 0.653 | 0.664
357.7 K, w1 = 0.3 | 0.601 | 0.601 | 0.608 | 0.617
374.5 K, w1 = 0.38 | 0.58 | 0.58 | 0.589 | 0.603
377.9 K, w1 = 0.2 | 0.637 | 0.637 | 0.642 | 0.653
378.6 K, w1 = 0.1 | 0.659 | 0.659 | 0.663 | 0.674
380.2 K, w1 = 0.3 | 0.61 | 0.61 | 0.617 | 0.627
396.5 K, w1 = 0.2 | 0.643 | 0.643 | 0.648 | 0.659
398.7 K, w1 = 0.38 | 0.585 | 0.585 | 0.593 | 0.609
399.2 K, w1 = 0.1 | 0.664 | 0.664 | 0.669 | 0.679
401 K, w1 = 0.3 | 0.615 | 0.615 | 0.623 | 0.633
424.5 K, w1 = 0.38 | 0.585 | 0.585 | 0.593 | 0.609
426.4 K, w1 = 0.3 | 0.614 | 0.614 | 0.624 | 0.637
427.5 K, w1 = 0.1 | 0.664 | 0.664 | 0.671 | 0.682
429.2 K, w1 = 0.2 | 0.643 | 0.643 | 0.649 | 0.659
450.6 K, w1 = 0.2 | 0.632 | 0.632 | 0.638 | 0.652
453.7 K, w1 = 0.1 | 0.652 | 0.652 | 0.659 | 0.672
455 K, w1 = 0.3 | 0.6 | 0.6 | 0.608 | 0.621
456.7 K, w1 = 0.38 | 0.572 | 0.572 | 0.583 | 0.6
483.2 K, w1 = 0.2 | – | – | 0.618 | 0.634
483.2 K, w1 = 0.38 | – | – | 0.569 | 0.59
486.2 K, w1 = 0.1 | – | – | 0.639 | 0.66
515.3 K, w1 = 0.1 | – | – | 0.611 | 0.634
515.7 K, w1 = 0.38 | – | – | 0.535 | 0.565
519.4 K, w1 = 0.2 | – | – | 0.583 | 0.601
541.3 K, w1 = 0.38 | – | – | 0.504 | 0.539
542.7 K, w1 = 0.1 | – | – | 0.576 | 0.604
547.6 K, w1 = 0.2 | – | – | 0.546 | 0.571
576.2 K, w1 = 0.2 | – | – | 0.504 | 0.535
576.5 K, w1 = 0.38 | – | – | 0.454 | 0.494
577.3 K, w1 = 0.1 | – | – | 0.525 | 0.566
